Columns and labels:
[1] = tested on: vasopressin-induced hypertension; test: Reversal of vasopressin-induced hypertension in rats, intraduodenal single dose; type: in vivo, Male Long Evans rats; conditions: ID dose 10 mg/kg, anesthetized rats, maximum percent reversal within 60 min
Method: Reversal of Vasopressin-Induced Hypertension in Rats
The anti-hypertensive activity of compounds was screened in an anesthetized model of vasopressin-induced hypertension. Male Long Evans, normotensive rats of between 350 and 450 g in body weight were anesthetized with pentobarbital (35 mg/kg, ip) and maintained throughout the procedure with an ip infusion of 10 mg/kg/hr. Arginine vasopressin was infused at 30 ng/kg/min, iv, to induce a stable hypertensive state (ca. 50 mmHg increase in mean arterial blood pressure). Compounds of interest were administered in an ascending dose fashion and the maximum decrease in mean arterial blood pressure was recorded. An ED50 was determined from the linear portion of the dose-response relationship for each animal.
This model was modified slightly to assess the bioavailability of compounds of interest. Rather than dosing the animals iv in an ascending dose fashion, a single dose per animal was administered directly into the duodenum. The anti-hypertensive effects were then monitored for 60 min and the maximum percent reversal was calculated.

human V-1 receptor = biological target: T1, human V-1 receptor (Homo sapiens, UniProt P37288); test: In vitro recombinant vasopressin receptor binding assay (V-1), displacement of 3H-arginine vasopressin; parameters: unit of the concentration uncertain; conditions: at 0.1 (unit uncertain) as printed in cell; cloned human V-1 receptor membranes, HEK-293
T1 construct: expressed in transfected cells; host or cells: HEK-293
T1 sequence (P37288 whole entry): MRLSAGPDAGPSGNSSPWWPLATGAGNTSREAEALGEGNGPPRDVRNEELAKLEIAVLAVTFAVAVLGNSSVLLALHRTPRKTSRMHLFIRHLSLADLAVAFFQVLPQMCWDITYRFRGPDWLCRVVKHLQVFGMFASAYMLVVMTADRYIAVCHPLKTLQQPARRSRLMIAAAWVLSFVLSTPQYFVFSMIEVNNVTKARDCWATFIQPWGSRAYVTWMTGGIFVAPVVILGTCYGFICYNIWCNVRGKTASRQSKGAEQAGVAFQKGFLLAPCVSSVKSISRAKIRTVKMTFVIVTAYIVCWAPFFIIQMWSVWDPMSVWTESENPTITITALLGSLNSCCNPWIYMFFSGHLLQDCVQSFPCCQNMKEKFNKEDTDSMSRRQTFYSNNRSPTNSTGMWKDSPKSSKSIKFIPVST
Method: (§1) In Vitro Recombinant Vasopressin Receptor Binding Assay
(§2) Compounds were assessed for their ability to displace ^3H-arginine vasopressin from the human V-1 or V-2 receptor in HEK-293 cells. […] Into wells of 96-well round bottom polypropylene plates were added buffer, test compound, membrane (containing cloned human V-1 or V-2 receptor), and ^3H-vasopressin. The reaction plates were allowed to sit at rt for 1 h. The samples were filtered through Unifilter GF/C plates presoaked in 0.3 polyethyleneimine). The plates were washed 5 times with cold physiological saline containing 0.05% Tween 20. After drying, the bottom of the filter plates were sealed and 0.025 ml of Microscint-20 was added to each filter. The top of the plate was sealed, and the plate was counted.

human V-2 receptor = biological target: T2, human V-2 receptor (Homo sapiens, UniProt P30518); test: In vitro recombinant vasopressin receptor binding assay (V-2), displacement of 3H-arginine vasopressin; parameters: dose or concentration left out as unconfirmed; conditions: cloned human V-2 receptor membranes, HEK-293
T2 construct: expressed in transfected cells; host or cells: HEK-293
T2 sequence (P30518 whole entry): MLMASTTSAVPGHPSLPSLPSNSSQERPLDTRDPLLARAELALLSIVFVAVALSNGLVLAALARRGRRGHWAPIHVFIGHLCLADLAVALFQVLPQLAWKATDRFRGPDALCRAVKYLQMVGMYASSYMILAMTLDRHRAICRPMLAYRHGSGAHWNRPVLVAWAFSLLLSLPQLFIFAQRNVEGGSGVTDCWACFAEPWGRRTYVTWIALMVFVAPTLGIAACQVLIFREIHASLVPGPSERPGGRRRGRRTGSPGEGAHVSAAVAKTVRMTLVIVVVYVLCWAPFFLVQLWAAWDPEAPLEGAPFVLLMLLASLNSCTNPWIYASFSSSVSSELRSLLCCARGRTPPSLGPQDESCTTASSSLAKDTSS
Method: as §1, §2

## O=C(Nc1ccc(C(=O)N2CCCc3c(S(=O)(=O)O)[nH]c4cccc2c34)c(Cl)c1)c1ccccc1-c1ccccc1 [Compound 19, 6-[4-[[(2-Biphenyl-)carbonyl]amino]2-chlorobenzoyl]-3,4,5,6-tetrahydro-1 H-azepino (4,3,2-cd]indole-2-sulfonic acid]
[1]
  BP Reduction (%): 23%
Human V-1 receptor
  V1 Bdg (%): 4% (0.1 M)

## O=C(Nc1ccc(C(=O)N2CCCC3C(=O)Nc4cccc2c43)cc1)c1ccccc1-c1ccccc1 (centres unmarked) [Compound 15, 6-[4-[[(2-Biphenyl-)carbonyl]amino]benzoyl]-3,4,5,6-tetrahydro-1H-azepino[4,3,2-cd]-2-indolone]
[1]
  BP Reduction (%): 23%

## CN(C)Cc1[nH]c2cccc3c2c1CCCN3C(=O)c1ccc(NC(=O)c2ccccc2-c2ccccc2)cc1 [Compound 17, 6-[4-[[(2-Biphenyl-)carbonyl]amino]benzoyl]-2-(N, N-dimethylaminomethyl)-3,4,5,6-tetrahydro-1 H-azepino[4,3,2-cd]indole]
Human V-1 receptor
  V1 Bdg (%): 6% (0.1 M)

## O=C(Nc1ccc(C(=O)N2CCCc3c[nH]c4cccc2c34)cc1)c1ccccc1-c1ccccc1 [Compound 10, 6-[4-[[(2-Biphenyl-)carbonyl]amino]benzoyl]-3,4,5,6-tetrahydro-1H-azepino[4,3,2-cd]indole]
[1]
  BP Reduction (%): 17%

## O=C(Nc1ccc(C(=O)N2CCCc3c(S(=O)(=O)O)[nH]c4cccc2c34)cc1)c1ccccc1-c1ccccc1 [Compound 18, 6-[4-[[(2-Biphenyl-)carbonyl]amino]benzoyl]-3,4,5,6-tetrahydro-1H-azepino[4,3,2-cd]indole-2-sulfonic acid]
[1]
  BP Reduction (%): 13%
Human V-1 receptor
  V1 Bdg (%): 0% (0.1 M)

## Cc1occc1C(=O)Nc1ccc(C(=O)N2CCCc3c[nH]c4cccc2c34)cc1 [Compound 12, 6-[4-[[(2-Methyl-3-furanyl)carbonyl]amino]benzoyl]-3,4,5,6-tetrahydro-1H-azepino[4,3,2-cd]indole]
Human V-2 receptor
  V2 Bdg (%): 24% (1.0 M)

From patent US6765004B1, “Indoloazepines as vasopressin receptor antagonists” (priority 1999, dated 2004)
